Experimental data reported in BindingDB's records for doi:10.1016/j.bmcl.2008.10.124 (Schering-Plough Research Institute, 2009).

Target: Genome polyprotein (Hepatitis C virus genotype 1a (isolate H77), UniProt P27958)
Assay: Continuous Spectrophotometric Assay
Conditions: pH 6.5; 30 °C
Description: Proteolytic cleavage of the ester linkage between the Nva (L-norvaline) and the chromophore (PAP) was monitored for change in absorbance at 370 nm. Initial velocities were determined using linear regression and kinetic constants were obtained by fitting the data to the Michaelis-Menten equation.

Genome polyprotein, sequence (P27958 1027-1657 limits assumed): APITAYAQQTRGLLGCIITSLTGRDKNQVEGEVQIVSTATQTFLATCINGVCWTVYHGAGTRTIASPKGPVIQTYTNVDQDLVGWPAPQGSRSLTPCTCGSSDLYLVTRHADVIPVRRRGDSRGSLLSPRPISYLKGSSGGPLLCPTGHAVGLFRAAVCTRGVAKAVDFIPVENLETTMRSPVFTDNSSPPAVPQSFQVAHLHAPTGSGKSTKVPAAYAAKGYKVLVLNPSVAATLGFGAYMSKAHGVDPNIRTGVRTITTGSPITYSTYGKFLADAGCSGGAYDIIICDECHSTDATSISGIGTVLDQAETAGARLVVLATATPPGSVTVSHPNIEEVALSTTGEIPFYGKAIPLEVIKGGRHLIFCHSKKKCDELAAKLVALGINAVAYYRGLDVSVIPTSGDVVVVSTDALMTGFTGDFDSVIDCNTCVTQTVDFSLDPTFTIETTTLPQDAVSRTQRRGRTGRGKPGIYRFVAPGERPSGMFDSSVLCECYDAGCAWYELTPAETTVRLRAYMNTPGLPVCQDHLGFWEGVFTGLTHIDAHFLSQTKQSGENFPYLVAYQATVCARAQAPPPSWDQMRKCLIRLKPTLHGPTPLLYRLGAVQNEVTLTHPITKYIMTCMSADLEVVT

Ki [nM] | SMILES
0.5 | CN(C[C@@H](NC(=O)N[C@H](C(=O)N1C[C@H]2[C@@H]([C@H]1C(=O)N[C@@H](CC1CCC1)B1O[C@@H]3CC4CC(C4(C)C)[C@]3(C)O1)C2(C)C)C(C)(C)C)C(C)(C)C)S(C)(=O)=O (stereo partly drawn) [(1R,2S,5S)-N-[(1R)-2-cyclobutyl-1-[(2S,6R)-2,9,9-trimethyl-3,5-dioxa-4-boratricyclo[6.1.1.0^{2,6}]decan-4-yl]ethyl]-3-[(2S)-2-({[(2S)-1-[methane(methyl)sulfonamido]-3,3-dimethylbutan-2-yl]carbamoyl}amino)-3,3-dimethylbutanoyl]-6,6-dimethyl-3-azabicyclo[3.1.0]hexane-2-carboxamide]
10 | CC(C)(C)NC(=O)N[C@H](C(=O)N1C[C@H]2[C@@H](C1C(=O)N[C@@H](CC1CCC1)B1O[C@@H]3CC4CC(C4(C)C)[C@]3(C)O1)C2(C)C)C(C)(C)C (stereo partly drawn) [(1R,5S)-3-[(2S)-2-[(tert-butylcarbamoyl)amino]-3,3-dimethylbutanoyl]-N-[(1R)-2-cyclobutyl-1-[(2S,6R)-2,9,9-trimethyl-3,5-dioxa-4-boratricyclo[6.1.1.0^{2,6}]decan-4-yl]ethyl]-6,6-dimethyl-3-azabicyclo[3.1.0]hexane-2-carboxamide]
500 | CC[C@H](NC(=O)[C@@H]1[C@@H]2[C@H](CN1C(=O)[C@@H](NC(=O)NC(C)(C)C)C(C)(C)C)C2(C)C)B1O[C@@H]2CC3CC(C3(C)C)[C@]2(C)O1 (stereo partly drawn) [(1R,2S,5S)-3-[(2S)-2-[(tert-butylcarbamoyl)amino]-3,3-dimethylbutanoyl]-6,6-dimethyl-N-[(1R)-1-[(2S,6R)-2,9,9-trimethyl-3,5-dioxa-4-boratricyclo[6.1.1.0^{2,6}]decan-4-yl]propyl]-3-azabicyclo[3.1.0]hexane-2-carboxamide]
10 | CC(C)(C)NC(=O)N[C@H](C(=O)N1C[C@H]2[C@@H](C1C(=O)N[C@@H](CC1CCC1)B(O)O)C2(C)C)C(C)(C)C (stereo partly drawn) [(1R,5S)-3-[(2S)-2-[(tert-butylcarbamoyl)amino]-3,3-dimethylbutanoyl]-N-[(1R)-2-cyclobutyl-1-(dihydroxyboranyl)ethyl]-6,6-dimethyl-3-azabicyclo[3.1.0]hexane-2-carboxamide]
34 | CC[C@H](NC(=O)[C@@H]1[C@@H]2[C@H](CN1C(=O)[C@@H](NC(=O)N[C@H](CN(C)S(C)(=O)=O)C(C)(C)C)C(C)(C)C)C2(C)C)B1O[C@@H]2CC3CC(C3(C)C)[C@]2(C)O1 (stereo partly drawn) [(1R,2S,5S)-3-[(2S)-2-({[(2S)-1-[methane(methyl)sulfonamido]-3,3-dimethylbutan-2-yl]carbamoyl}amino)-3,3-dimethylbutanoyl]-6,6-dimethyl-N-[(1R)-1-[(2S,6R)-2,9,9-trimethyl-3,5-dioxa-4-boratricyclo[6.1.1.0^{2,6}]decan-4-yl]propyl]-3-azabicyclo[3.1.0]hexane-2-carboxamide]
380 | CC[C@H](NC(=O)C1[C@@H]2[C@H](CN1C(=O)[C@@H](NC(=O)NC(C)(C)C)C(C)(C)C)C2(C)C)B1O[C@@H]2CC3CC(C3(C)C)[C@]2(C)O1 (stereo partly drawn) [(1R,5S)-3-[(2S)-2-[(tert-butylcarbamoyl)amino]-3,3-dimethylbutanoyl]-6,6-dimethyl-N-[(1R)-1-[(2S,6R)-2,9,9-trimethyl-3,5-dioxa-4-boratricyclo[6.1.1.0^{2,6}]decan-4-yl]propyl]-3-azabicyclo[3.1.0]hexane-2-carboxamide]
